Organism: Rattus norvegicus
Assay: Open TG-GATES - Regimen: Single
Type: toxicity, organism-based, Sprague-Dawley
Set-up: regimen Single, gender Male, age 6 weeks
Settings: in vivo, po, route gavage; for APTT / Bas / Eos / Fbg / Hb / Ht / Lym / MCH / MCHC / MCV / Mono / Neu / PT / Plat / RBC / Ret / WBC: tissue Blood; for KIDNEY_L / KIDNEY_R / KIDNEY_TOTAL: tissue Kidney; for LIVER: tissue Liver; for A/G / ALP / ALT / AST / BUN / CRE / Ca / Cl / DBIL / GLC / IP / K / LDH / Na / PL / RALB / TBIL / TC / TG / TP / gamma-GTP: tissue Plasma
[1] = 300 mg/kg, 3 h, dose level Middle
[2] = 300 mg/kg, 6 h, dose level Middle
[3] = 300 mg/kg, 9 h, dose level Middle
[4] = 300 mg/kg, 24 h, dose level Middle
[5] = 1000 mg/kg, 3 h, dose level High
[6] = 1000 mg/kg, 6 h, dose level High
[7] = 1000 mg/kg, 9 h, dose level High
[8] = 1000 mg/kg, 24 h, dose level High

O=C(N[C@H](CO)[C@H](O)c1ccc([N+](=O)[O-])cc1)C(Cl)Cl [CHLORAMPHENICOL]
TERMINAL_BW [1]: 221.3 g
APTT [1]: 16.6 s
Bas [1]: 0%
Eos [1]: 1%
Fbg [1]: 268.4 mg/dL
Hb [1]: 13.2 g/dL
Ht [1]: 39%
Lym [1]: 78.2%
MCH [1]: 21.8 pg
MCHC [1]: 33.9%
MCV [1]: 64.1 fL
Mono [1]: 3.2%
Neu [1]: 17.4%
PT [1]: 14.5 s
Plat [1]: 114 x10_4/uL
RBC [1]: 608.8 x10_4/ul
Ret [1]: 8.3%
WBC [1]: 71.3 x10_2/uL
KIDNEY_L [1]: 0.9 g
KIDNEY_R [1]: 0.9 g
KIDNEY_TOTAL [1]: 1.9 g
LIVER [1]: 9.8 g
A/G [1]: 0.9
ALP [1]: 1546.4 IU/L
ALT [1]: 41 IU/L
AST [1]: 76.6 IU/L
BUN [1]: 11 mg/dL
CRE [1]: 0.2 mg/dL
Ca [1]: 11.5 mg/dL
Cl [1]: 105.8 meq/L
DBIL [1]: 0.018 mg/dL
GLC [1]: 181.8 mg/dL
IP [1]: 9.1 mg/dL
K [1]: 4.1 meq/L
LDH [1]: 66.2 IU/L
Na [1]: 139.8 meq/L
PL [1]: 144.2 mg/dL
RALB [1]: 2.5 g/dL
TBIL [1]: 0.064 mg/dL
TC [1]: 76.6 mg/dL
TG [1]: 66 mg/dL
TP [1]: 5.5 g/dL
gamma-GTP [1]: 1.2 IU/L
TERMINAL_BW [2]: 221.3 g
APTT [2]: 17.6 s
Bas [2]: 0%
Eos [2]: 0.8%
Fbg [2]: 284 mg/dL
Hb [2]: 13.4 g/dL
Ht [2]: 42.8%
Lym [2]: 79.8%
MCH [2]: 21.7 pg
MCHC [2]: 31.3%
MCV [2]: 69.4 fL
Mono [2]: 2.6%
Neu [2]: 16.8%
PT [2]: 15 s
Plat [2]: 107.3 x10_4/uL
RBC [2]: 618.2 x10_4/ul
Ret [2]: 8.2%
WBC [2]: 68.7 x10_2/uL
KIDNEY_L [2]: 0.9 g
KIDNEY_R [2]: 1 g
KIDNEY_TOTAL [2]: 1.9 g
LIVER [2]: 8.8 g
A/G [2]: 0.9
ALP [2]: 1672 IU/L
ALT [2]: 40.8 IU/L
AST [2]: 72.2 IU/L
BUN [2]: 9.4 mg/dL
CRE [2]: 0.2 mg/dL
Ca [2]: 11.4 mg/dL
Cl [2]: 106 meq/L
DBIL [2]: 0.014 mg/dL
GLC [2]: 184.4 mg/dL
IP [2]: 9.8 mg/dL
K [2]: 4.4 meq/L
LDH [2]: 79 IU/L
Na [2]: 141 meq/L
PL [2]: 138.2 mg/dL
RALB [2]: 2.5 g/dL
TBIL [2]: 0.07 mg/dL
TC [2]: 76.6 mg/dL
TG [2]: 60 mg/dL
TP [2]: 5.4 g/dL
gamma-GTP [2]: 1 IU/L
TERMINAL_BW [3]: 221.3 g
APTT [3]: 16.4 s
Bas [3]: 0%
Eos [3]: 0.8%
Fbg [3]: 273.4 mg/dL
Hb [3]: 13.2 g/dL
Ht [3]: 42.2%
Lym [3]: 81.6%
MCH [3]: 20.5 pg
MCHC [3]: 31.4%
MCV [3]: 65.4 fL
Mono [3]: 1.8%
Neu [3]: 15%
PT [3]: 15.2 s
Plat [3]: 109.8 x10_4/uL
RBC [3]: 646.2 x10_4/ul
Ret [3]: 7.4%
WBC [3]: 55.9 x10_2/uL
KIDNEY_L [3]: 0.9 g
KIDNEY_R [3]: 0.9 g
KIDNEY_TOTAL [3]: 1.8 g
LIVER [3]: 8.3 g
A/G [3]: 0.9
ALP [3]: 1711.2 IU/L
ALT [3]: 34.6 IU/L
AST [3]: 70.2 IU/L
BUN [3]: 10.2 mg/dL
CRE [3]: 0.2 mg/dL
Ca [3]: 11.1 mg/dL
Cl [3]: 105 meq/L
DBIL [3]: 0.014 mg/dL
GLC [3]: 180.4 mg/dL
IP [3]: 10.2 mg/dL
K [3]: 4.5 meq/L
LDH [3]: 59.4 IU/L
Na [3]: 139.8 meq/L
PL [3]: 122 mg/dL
RALB [3]: 2.5 g/dL
TBIL [3]: 0.068 mg/dL
TC [3]: 67.8 mg/dL
TG [3]: 36 mg/dL
TP [3]: 5.3 g/dL
gamma-GTP [3]: 1.2 IU/L
TERMINAL_BW [4]: 227.9 g
APTT [4]: 18.8 s
Bas [4]: 0%
Eos [4]: 0.8%
Fbg [4]: 258.8 mg/dL
Hb [4]: 13.7 g/dL
Ht [4]: 42.4%
Lym [4]: 84.4%
MCH [4]: 21.7 pg
MCHC [4]: 32.1%
MCV [4]: 67.6 fL
Mono [4]: 2.8%
Neu [4]: 11.6%
PT [4]: 14.8 s
Plat [4]: 118.7 x10_4/uL
RBC [4]: 628.2 x10_4/ul
Ret [4]: 7.8%
WBC [4]: 66 x10_2/uL
KIDNEY_L [4]: 1 g
KIDNEY_R [4]: 1 g
KIDNEY_TOTAL [4]: 2 g
LIVER [4]: 9.4 g
A/G [4]: 0.9
ALP [4]: 1891.8 IU/L
ALT [4]: 48.2 IU/L
AST [4]: 76.6 IU/L
BUN [4]: 14.8 mg/dL
CRE [4]: 0.2 mg/dL
Ca [4]: 11.5 mg/dL
Cl [4]: 105.4 meq/L
DBIL [4]: 0.02 mg/dL
GLC [4]: 190.4 mg/dL
IP [4]: 8.8 mg/dL
K [4]: 4.5 meq/L
LDH [4]: 65 IU/L
Na [4]: 141.6 meq/L
PL [4]: 157.6 mg/dL
RALB [4]: 2.5 g/dL
TBIL [4]: 0.062 mg/dL
TC [4]: 86 mg/dL
TG [4]: 81 mg/dL
TP [4]: 5.5 g/dL
gamma-GTP [4]: 1 IU/L
TERMINAL_BW [5]: 221.6 g
APTT [5]: 17.1 s
Bas [5]: 0%
Eos [5]: 1%
Fbg [5]: 263.6 mg/dL
Hb [5]: 13.5 g/dL
Ht [5]: 39.6%
Lym [5]: 73%
MCH [5]: 21.7 pg
MCHC [5]: 34.2%
MCV [5]: 63.7 fL
Mono [5]: 3.8%
Neu [5]: 21.8%
PT [5]: 14.9 s
Plat [5]: 112.6 x10_4/uL
RBC [5]: 622.4 x10_4/ul
Ret [5]: 7.8%
WBC [5]: 76.3 x10_2/uL
KIDNEY_L [5]: 1 g
KIDNEY_R [5]: 1 g
KIDNEY_TOTAL [5]: 2 g
LIVER [5]: 9.5 g
A/G [5]: 0.9
ALP [5]: 1586 IU/L
ALT [5]: 42 IU/L
AST [5]: 78.4 IU/L
BUN [5]: 8.4 mg/dL
CRE [5]: 0.2 mg/dL
Ca [5]: 10.9 mg/dL
Cl [5]: 106.6 meq/L
DBIL [5]: 0.012 mg/dL
GLC [5]: 182.4 mg/dL
IP [5]: 9 mg/dL
K [5]: 4.2 meq/L
LDH [5]: 56.4 IU/L
Na [5]: 140 meq/L
PL [5]: 137.2 mg/dL
RALB [5]: 2.6 g/dL
TBIL [5]: 0.064 mg/dL
TC [5]: 70.4 mg/dL
TG [5]: 63 mg/dL
TP [5]: 5.5 g/dL
gamma-GTP [5]: 1 IU/L
TERMINAL_BW [6]: 221.4 g
APTT [6]: 16.8 s
Bas [6]: 0%
Eos [6]: 1%
Fbg [6]: 278.4 mg/dL
Hb [6]: 13.9 g/dL
Ht [6]: 45.6%
Lym [6]: 73.8%
MCH [6]: 21.1 pg
MCHC [6]: 30.4%
MCV [6]: 69.3 fL
Mono [6]: 2%
Neu [6]: 23.2%
PT [6]: 15 s
Plat [6]: 113 x10_4/uL
RBC [6]: 657.2 x10_4/ul
Ret [6]: 7.7%
WBC [6]: 59.5 x10_2/uL
KIDNEY_L [6]: 0.9 g
KIDNEY_R [6]: 0.9 g
KIDNEY_TOTAL [6]: 1.8 g
LIVER [6]: 8.5 g
A/G [6]: 0.9
ALP [6]: 1369 IU/L
ALT [6]: 33.2 IU/L
AST [6]: 69 IU/L
BUN [6]: 7.8 mg/dL
CRE [6]: 0.2 mg/dL
Ca [6]: 11.1 mg/dL
Cl [6]: 107 meq/L
DBIL [6]: 0.01 mg/dL
GLC [6]: 186.2 mg/dL
IP [6]: 10.3 mg/dL
K [6]: 4.1 meq/L
LDH [6]: 57.6 IU/L
Na [6]: 141.4 meq/L
PL [6]: 128.2 mg/dL
RALB [6]: 2.6 g/dL
TBIL [6]: 0.072 mg/dL
TC [6]: 70 mg/dL
TG [6]: 26.2 mg/dL
TP [6]: 5.5 g/dL
gamma-GTP [6]: 1 IU/L
TERMINAL_BW [7]: 221.1 g
APTT [7]: 17 s
Bas [7]: 0%
Eos [7]: 0.8%
Fbg [7]: 281.4 mg/dL
Hb [7]: 13.8 g/dL
Ht [7]: 44%
Lym [7]: 80.2%
MCH [7]: 21.4 pg
MCHC [7]: 31.4%
MCV [7]: 68.2 fL
Mono [7]: 1.6%
Neu [7]: 17.8%
PT [7]: 15.6 s
Plat [7]: 107.2 x10_4/uL
RBC [7]: 644.8 x10_4/ul
Ret [7]: 7.5%
WBC [7]: 53.4 x10_2/uL
KIDNEY_L [7]: 0.9 g
KIDNEY_R [7]: 0.9 g
KIDNEY_TOTAL [7]: 1.8 g
LIVER [7]: 8.5 g
A/G [7]: 0.9
ALP [7]: 1491.8 IU/L
ALT [7]: 30 IU/L
AST [7]: 68 IU/L
BUN [7]: 8.2 mg/dL
CRE [7]: 0.2 mg/dL
Ca [7]: 10.9 mg/dL
Cl [7]: 105.4 meq/L
DBIL [7]: 0.018 mg/dL
GLC [7]: 176.6 mg/dL
IP [7]: 10.6 mg/dL
K [7]: 4.2 meq/L
LDH [7]: 69.6 IU/L
Na [7]: 140 meq/L
PL [7]: 125.8 mg/dL
RALB [7]: 2.5 g/dL
TBIL [7]: 0.074 mg/dL
TC [7]: 66.6 mg/dL
TG [7]: 44 mg/dL
TP [7]: 5.5 g/dL
gamma-GTP [7]: 1 IU/L
TERMINAL_BW [8]: 222.4 g
APTT [8]: 16.6 s
Bas [8]: 0%
Eos [8]: 0.8%
Fbg [8]: 255.8 mg/dL
Hb [8]: 14.2 g/dL
Ht [8]: 44.2%
Lym [8]: 83%
MCH [8]: 21.3 pg
MCHC [8]: 32.1%
MCV [8]: 66.4 fL
Mono [8]: 4%
Neu [8]: 11.6%
PT [8]: 15.7 s
Plat [8]: 121.3 x10_4/uL
RBC [8]: 665 x10_4/ul
Ret [8]: 6.3%
WBC [8]: 54.2 x10_2/uL
KIDNEY_L [8]: 0.9 g
KIDNEY_R [8]: 0.9 g
KIDNEY_TOTAL [8]: 1.9 g
LIVER [8]: 9.4 g
A/G [8]: 0.9
ALP [8]: 1571.8 IU/L
ALT [8]: 45.8 IU/L
AST [8]: 79.2 IU/L
BUN [8]: 14.4 mg/dL
CRE [8]: 0.2 mg/dL
Ca [8]: 11.6 mg/dL
Cl [8]: 106.8 meq/L
DBIL [8]: 0.016 mg/dL
GLC [8]: 184.8 mg/dL
IP [8]: 9.1 mg/dL
K [8]: 4.1 meq/L
LDH [8]: 64 IU/L
Na [8]: 142.2 meq/L
PL [8]: 122.4 mg/dL
RALB [8]: 2.6 g/dL
TBIL [8]: 0.068 mg/dL
TC [8]: 65.2 mg/dL
TG [8]: 50.8 mg/dL
TP [8]: 5.6 g/dL
gamma-GTP [8]: 1 IU/L
